According to US9622998B2, “Rapid-acting, blood-arginine-level-increasable oral preparation comprising citrulline and arginine” (Kyowa Hakko Bio Co., Ltd., priority 2007, dated 2017):

Key:
cGMP = assay: Plasma cGMP after oral administration to rabbits (Experimental Example 2); assay type: in vivo; settings: male New Zealand rabbits, fasted 16 hr, oral by sonde, groups 1 and 2: 2.85 mmol/kg, group 3: 1.43 mmol/kg each
Experimental: (§1) 14-Week-old male New Zealand rabbits (KITAYAMA LABES Co., Ltd.) were purchased, preliminarily bred for 28 days and divided into 3 groups (n=3 or 4). After fasting for 16 hr, L-citrulline and L-arginine were orally administered to the rabbits of group 1 and group 2, respectively, by a sonde to achieve 2.85 mmol/kg per rabbit for both (499.3 mg/kg and 496.5 mg/kg, respectively). Moreover, L-citrulline and L-arginine were orally administered to the rabbits of group 3 by a sonde to achieve 1.43 mmol/kg per rabbit (250.5 mg/kg and 249.1 mg/kg, respectively).
(§2) The blood was collected from the ear vein before administration, and 30 min, 1, 2 and 4 hr after administration, and subjected to quantification of L-arginine, NO metabolite and cGMP in plasma. The blood was collected in a 1.5 mL tube containing 1% heparin dispensed thereto in advance (for quantification of L-arginine) and a disodium ethylenediaminetetraacetate (EDTA-2Na)-added tube (for quantification of NO metabolite and cGMP), and centrifuged (12000 rpm, 10 min, 4° C.) to give plasma. In heparin plasma thereafter, 3% sulfosalicylic acid in the same amount as the plasma was added and blended, and the mixture was stood still on ice for 1 hr and centrifuged (12000 rpm, 10 min, 4° C.) to give deproteinized plasma as a sample for analysis.
(§3) L-arginine in the sample for analysis was quantified using an automatic amino acid analyzer (JOEL JLC-500/V), NO metabolite (NOx:NO2+NO3) was quantified using a nitrogen oxide analyzer (Eicom ENO10), and cGMP was quantified by […] (Amersham Pharmacia RPN226).
(§4) Moreover, the area under the blood concentration-time curves of L-arginine, NO metabolite and cGMP in plasma were calculated, and the results are shown in Table 2-Table 4.

[1] = test system: NO metabolite (NOx:NO2+NO3); assay: Plasma NO metabolite (NOx) after oral administration to rabbits (Experimental Example 2); assay type: in vivo; settings: male New Zealand rabbits, fasted 16 hr, oral by sonde, groups 1 and 2: 2.85 mmol/kg, group 3: 1.43 mmol/kg each
Experimental: as §1, §2, §3, §4

| Compound | AUC of cGMP in plasma, 0-30 min (cGMP) [nmol·h/mL] | AUC of cGMP in plasma, 0-1 hr (cGMP) [nmol·h/mL] | AUC of NO metabolite in plasma, 0-30 min [1] [nmol·h/mL] | AUC of NO metabolite in plasma, 0-1 hr [1] [nmol·h/mL] |
| --- | --- | --- | --- | --- |
| N=C(N)NCCC[C@H](N)C(=O)O [group 2, L-arginine] | 0.028 | 0.10 | 0.3 | 10.1 |
| NC(=O)NCCC[C@H](N)C(=O)O [group 1, L-citrulline] | 0.033 | 0.12 | 8.1 | 25.7 |
